Results: paper PMC8780741, “Integration of In Silico, In Vitro and In Situ Tools for the Preformulation and Characterization of a Novel Cardio-Neuroprotective Compound during the Early Stages of Drug Development” (Pharmaceutics, 2022)
Values after ≈ are worked out from the molar mass of the structure shown. Where two headings read alike, the source gives them in different places.

How the values were obtained:
[1] = design: method as in product owner (technical report); settings: ref product owner (technical report); cited from earlier work
[2] = Apparent permeability across MDCK-MDR1 monolayers; assay type: in vitro ADME, Canine; settings: dog, 37 °C, stirring at 50 rpm
Method: (§1) MDCK (Madin–Darby Canine Kidney) cells, their transfected clone MDCK-MDR1, and Caco-2 cells were grown in the modified Dulbecco Eagle medium added with L-glutamine, fetal bovine serum and penicillin−streptomycin. The number of cells seeded in transwells with a surface area of 4.2 cm^2 depended on the cell line: 250,000 cells/cm^2 for MDCK and Caco-2 and 150,000 cells/cm^2 for MDCK-MDR1. Experiments were performed between 7 and 9 days for MDCK and MDCK-MDR1 and between 19 and 21 for Caco-2 cells after seeding. Prior to drug placement, cell monolayer integrity was assessed by measuring transepithelial electrical resistance (TEER). Transport studies were performed on an orbital shaker at 37 °C and 50 rpm. Four samples of 200 μL were taken from the receptor side at 0, 15, 30, 60 and 90 min, and two samples from the donor compartment at the beginning and end of the experiment. A standard experiment was performed with the same buffer for the apical and basolateral compartments in the apical to basolateral (A-B) and basolateral to apical (B-A) directions. The drug concentration was 100 μM in all experiments and samples were analyzed immediately by HPLC. The retention time was 2.3 min at maximum wavelengths (λmax = 260 nm). […] The lower limit of quantitation of JM-20 was adequate to interpolate the values obtained in the samples. […]

[3] = design: method as in earlier work; settings: potentiometric titration; cited from earlier work
[4] = Dissociation constant (pKa) by UV-spectrophotometric method; assay type: physicochemical; settings: aqueous buffer solutions
Method: The pH measurements were performed using a sensiON™ (PH31) pH meter. Standard solutions of JM-20 ([…] were prepared adding 0.2 mL of the stock solution in 9.8 mL of each buffer. UV-VIS spectra were recorded on a UV-Vis Spectrophotometer (Thermo Fisher GENESYS™ 10S, Shanghai, China) between 200 and 400 nm (2 nm of resolution). All spectrophotometric data were processed in Microsoft Excel (2018).
The experimental pKa was determined using the spectrophotometric method proposed by Salgado et al.. The absorbance spectra of the JM-20 were acquired at different pH levels. The wavelengths of maximum absorbance were determined at each pH. Using a plot of observed absorbance versus pH at these analytical wavelengths (262, 316 and 355 nm), the pKa values were calculated. To determine these points, the linear equations of the two points closest to the crossing at each curve were solved. The whole procedure was carried out in triplicate and at room temperature (23 ± 2 °C).

[5] = Apparent permeability across Caco-2 monolayers; assay type: in vitro ADME; settings: human
Method: MDCK (Madin–Darby Canine Kidney) cells, their transfected clone MDCK-MDR1, and Caco-2 cells were grown in the modified Dulbecco Eagle medium added with L-glutamine, fetal bovine serum and penicillin−streptomycin. The number of cells seeded in transwells with a surface area of 4.2 cm^2 depended on the cell line: 250,000 cells/cm^2 for MDCK and Caco-2 and 150,000 cells/cm^2 for MDCK-MDR1. Experiments were performed between 7 and 9 days for MDCK and MDCK-MDR1 and between 19 and 21 for Caco-2 cells after seeding. Prior to drug placement, cell monolayer integrity was assessed by measuring transepithelial electrical resistance (TEER). Transport studies were performed on an orbital shaker at 37 °C and 50 rpm. Four samples of 200 μL were taken from the receptor side at 0, 15, 30, 60 and 90 min, and two samples from the donor compartment at the beginning and end of the experiment. A standard experiment was performed with the same buffer for the apical and basolateral compartments in the apical to basolateral (A-B) and basolateral to apical (B-A) directions. The drug concentration was 100 μM in all experiments and samples were analyzed immediately by HPLC. The retention time was 2.3 min at maximum wavelengths (λmax = 260 nm). The conditions used for HPLC analyses were: mobile phase composed of a mixture of 50% H2O (95% H2O + 0.5% trifluoroacetic) and another 50% HPLC-grade methanol. The stationary phase composed of a Phenomenex® KJ0-4282 column, with two 2 μm filters filled with C-18 microparticles of 40 μm size and a Nova Pak C-18 stainless-steel column of 150 mm length. […] The lower limit of quantitation of JM-20 was adequate to interpolate the values obtained in the samples.
The apparent permeability coefficient was calculated according to the following Equation (2):(2) Creceiver,t=Qtotal/Vreceiver+Vdonor+Creceiver,t−1·f−Qtotal/Vreceiver+Vdonor·e^−Peff0,1·S·1/Vreceiver+1/Vdonor·Δt where Creceiver,t is the concentration of the drug in the receiver compartment at the time t, Qtotal is the total amount of drug in receiver and donor chambers, Vreceiver and Vdonor are the volumes of receiver and donor chamber, respectively, Creceiver,t−1 is the concentration of the drug in receiver compartment at the previous time, f is the replacement dilution factor of the sample, S is the surface area of the monolayer, Δt is the time interval and Peff is the coefficient of permeability, as was described by Mangas-Sanjuan et al. All calculations were developed in Microsoft® Excel (2018).

[6] = Thermodynamic solubility, shake-flask saturation method, and dose number; assay type: physicochemical; settings: for solubility: USP buffer solution; for Do (dose number): D = 140 mg, 250 mL
Method: For the solubility study, six buffer solutions (pH 1.2, 3.0, 4.0, 4.5, 6.8 and 7.4) were prepared following the protocols published in the USP XXXVIII, United States Pharmacopoeia, as described above.
Solubility experiments for JM-20 were carried out according to the main regulatory guidelines for biowaivers. The tests were performed at the three recommended pH values (pH 1.2, 4.5 and 6.8) as well as pH […], 4.0 and 7.4 (USP buffer formulations). The shake-flask saturation method proposed by Baka et al. was used in the solubility study and the recommendations of Avdeef et al. were followed to improve the quality of the solubility data. The temperature was regulated at 37 °C. Equilibration times were 6 h stirring + 18 h sedimentation. At the end of equilibration, the two phases were separated by careful decantation. The samples were analyzed with a Thermo Fisher UV-Vis Spectrophotometer (λmax = 262 nm). A linear range of 2–20 μg/mL was obtained (r^2 > 0.99). Once the solubility range was determined, the dose number (Do) was calculated following Equation (1) (1) Do=D/Vo/Cs where D is the highest strength or highest dose administered (mg) according to FDA or EMA criteria, Vo is the volume of water ([…]).

[7] = Apparent permeability across MDCK monolayers; assay type: in vitro ADME, Canine; settings: dog, 37 °C, stirring at 50 rpm
Method: as §1

CCOC(=O)C1=C(C)NC2=C(C=Nc3ccccc3N2)C1c1ccccc1[N+](=O)[O-] (centres unmarked) [JM-20, 3-ethoxycarbonyl-2-methyl-4-(2-nitrophenyl)-4,11-dihydro-1H-pyrido [2,3-b][1,5] benzodiazepine]
Stability in DMSO and absolute ethanol [1]: stable | Papp A→B at 90 min, 100 µM [2]: 21.7 ± 2.2 ×10⁻⁶ cm/s | Papp B→A at 90 min, 100 µM [2]: 9.6 ± 0.5 ×10⁻⁶ cm/s | pKa [3]: 5.25 | pKa ([4]; pH 2 to 12, UV-spectrophotometric, 23 °C, ionic strength approximately 0.1 M, read-out: pKa1 (base)): 5.48 ± 0.19 | pKa ([4]; pH 2 to 12, UV-spectrophotometric, 23 °C, ionic strength approximately 0.1 M, read-out: pKa2 (acid)): 10.5 ± 0.17 | pKa ([4]; pH 2 to 12, measured pKa transformed to 37 °C (estimated), read-out: pKa1 at 37 °C): 5.54 | pKa ([4]; pH 2 to 12, measured pKa transformed to 37 °C (estimated), read-out: pKa2 at 37 °C): 10.3 | Papp A→B at 90 min, 100 µM ([5]; Caco-2, Caco-2, 100 μM, 37 °C, stirring at 50 rpm): 38.3 ± 1.8 ×10⁻⁶ cm/s | Papp at 90 min, 100 µM ([5]; Caco-2, read-out: Permeability, Caco-2 value (abstract)): 38 ×10⁻⁶ cm/s | Papp B→A at 90 min, 100 µM ([5]; Caco-2, 100 μM, 37 °C, stirring at 50 rpm): 8.5 ± 2.4 ×10⁻⁶ cm/s | efflux ratio at 90 min, 100 µM ([5]; Caco-2 bidirectional transport): 0.13 | solubility ([6]; aqueous buffer, thermodynamic from solid, buffer pH 1.2, 37 °C, shake-flask, read-out: Solubility ± SD): 9.18 ± 0.16 µg/mL (≈ 22.7 µM) | solubility ([6]; aqueous buffer, thermodynamic from solid, buffer pH 3.5, 37 °C, shake-flask, read-out: Solubility ± SD): 12.7 ± 0.83 µg/mL (≈ 31.5 µM) | solubility ([6]; aqueous buffer, thermodynamic from solid, buffer pH 4.0, 37 °C, shake-flask, read-out: Solubility ± SD): 25.4 ± 0.66 µg/mL (≈ 62.8 µM) | solubility ([6]; aqueous buffer, thermodynamic from solid, buffer pH 4.5, 37 °C, shake-flask, read-out: Solubility ± SD): 30.8 ± 1.29 µg/mL (≈ 76.3 µM) | solubility ([6]; aqueous buffer, thermodynamic from solid, buffer pH 6.8, 37 °C, shake-flask, read-out: Solubility ± SD): 11.3 ± 0.69 µg/mL (≈ 27.9 µM) | solubility ([6]; aqueous buffer, thermodynamic from solid, buffer pH 7.4, 37 °C, shake-flask, read-out: Solubility ± SD): 12.6 ± 0.36 µg/mL (≈ 31.3 µM) | solubility ([6]; pH 1.2, acidic pH, read-out: Solubility at acidic pH (abstract)): 9.18 ± 0.16 µg/mL (≈ 22.7 µM) | Dose number (Do) ([6]; at the different pH values, dose 140 mg): greater than 1 | D0 (dose number) ([6]; calculated with the lowest aqueous solubility): 61 | Do (dose number) ([6]; pH 1.2): 61.00 | Do (dose number) ([6]; pH 3.5): 44.03 | Do (dose number) ([6]; pH 4.0): 22.06 | Do (dose number) ([6]; pH 4.5): 18.16 | Do (dose number) ([6]; pH 6.8): 49.56 | Do (dose number) ([6]; pH 7.4): 44.30 | Papp A→B at 90 min, 100 µM [7]: 24.6 ± 1.1 ×10⁻⁶ cm/s | Papp B→A at 90 min, 100 µM [7]: 2.8 ± 7.1 ×10⁻⁶ cm/s
